# Source: article PMC8747000, “Synthesis, Pharmacological Evaluation, and Computational Studies of Cyclic Opioid Peptidomimetics Containing β^3-Lysine” (Molecules, 2021)
# Where two headings read alike, the source gives them in different places. Peptide text beside a SMILES is read from it.
# Legend:
# KOR [1] = biological target: T1, KOR (Homo sapiens, UniProt P41145); experiment: Calcium mobilization assay, CHO-KOR cells; format: cell-based; set-up: expressed in transfected cells; host or cells: CHO cells (gift from Prof. Girolamo Calo, University of Padova); details: for KOR α ± SEM (intrinsic activity): Emax ratio of tested compound and standard agonist dynorphin A, CHO cells co-expressing human KOR and Gαqi5
# MOR [2] = biological target: T2, MOR (Homo sapiens, UniProt P35372); experiment: Calcium mobilization assay, CHO-MOR cells; format: cell-based; set-up: expressed in transfected cells; host or cells: CHO cells (gift from Prof. Girolamo Calo, University of Padova); details: for MOR α ± SEM (intrinsic activity): Emax ratio of tested compound and standard agonist dermorphin, CHO cells co-expressing human MOR and Gαqi5
# DOR [3] = biological target: T3, DOR (Homo sapiens, UniProt P41143); experiment: Calcium mobilization assay, CHO-DOR cells; format: cell-based; set-up: expressed in transfected cells; host or cells: CHO cells (gift from Prof. Girolamo Calo, University of Padova); details: n ≥ 3; for DOR pEC50 (CL95%): CHO cells co-expressing human recombinant DOR and GαqG66Di5, Fluo-4 AM fluorescence, FlexStation II; for DOR α ± SEM (intrinsic activity): Emax ratio of tested compound and standard agonist DPDPE, CHO cells co-expressing human DOR and GαqG66Di5
# [4] = compared with EM-2; cited from earlier work
# From the text: Endomorphins are very short peptides lacking reactive side chain groups, which makes their cyclization difficult. […] In order to obtain cyclic analogs based on the structure of EM-2 but still to preserve the free N-terminal amino group, we introduced into the sequence of EM-2 additional amino acids with functionalized side chains. A pentapeptide analog Tyr-c[D-Lys-Phe-Phe-Asp]NH2 (designated RP-170), ...
# KOR [5] = biological target: T1, KOR; experiment: Opioid receptor binding assay, competitive displacement of [3H]U-69593; set-up: purchased PerkinElmer; host or cells: CHO cells
# Experimental: (§1) The binding affinities of cyclopeptides RP-171 and RP-172 toward MOR, DOR, and KOR were determined by competitive binding against [^3H]DAMGO, [^3H][D-Ala^2]deltorphin-2, and U-69593, respectively, using membranes of CHO cells transfected with opioid receptors and are summarized in Table 1.
# (§2) The opioid receptor binding assays were performed according to the described method, using commercial membranes of Chinese Hamster Ovary (CHO) cells transfected with human opioid receptors. The binding affinities for MOR, DOR, and KOR were determined by radioligand competition analysis using [^3H]DAMGO, [^3H]deltorphin-2, and [^3H]U-69593, respectively, as specific radioligands, respectively. Membrane preparations were incubated at 25 °C for 120 min with appropriate concentrations of a tested peptide in the presence of 0.5 nM radioligand in a total volume of 0.5 ml of 50 mM Tris/HCl (pH 7.4) containing bovine serum albumin (BSA) (1 mg/mL), bacitracin (50 µg/mL), bestatin (30 µM), and captopril (10 µM). Non-specific binding was determined in the presence of 1 µM naloxone. Incubations were terminated by the rapid filtration through the GF/B Whatman (Brentford, UK) glass fiber strips (pre-soaked for 2 h in 0.5% (v/v) polyethylamine) using Millipore Sampling Manifold (Billerica, MA, USA). The filters were washed three times with 4 ml of ice-cold Tris buffer solution. The bound radioactivity was measured in a Packard Tri-Carb 2100 TR liquid scintillation counter (Ramsey, MN, USA) after overnight extraction of the filters in 4 mL of a Perkin Elmer Ultima Gold scintillation fluid (Wellesley, MA, USA). Three independent experiments for each assay were carried out in duplicate. The data were analyzed by a nonlinear least square regression analysis computer program Graph Pad PRISM 6.0 (Graph Pad Software Inc., San Diego, CA, USA). The IC50 values were determined from the logarithmic concentration–displacement curves, and the values of the inhibitory constants (Ki) were calculated according to the equation of Cheng and Prusoff.
# MOR [6] = biological target: T2, MOR; experiment: Opioid receptor binding assay, competitive displacement of [3H]DAMGO; set-up: purchased PerkinElmer; host or cells: CHO cells
# Experimental: as §1, §2
# DOR [7] = biological target: T3, DOR; experiment: Opioid receptor binding assay, competitive displacement of [3H]deltorphin-2; set-up: purchased PerkinElmer; host or cells: CHO cells
# Experimental: as §1, §2
# [8] = Reversed-phase HPLC retention (chromatographic behavior as indication of lipophilicity); format: physicochemical; details: RP-HPLC, Vydac C18 column (5 μm, 4.6 x 250 mm); A 0.1% TFA in water, B 80% acetonitrile in water with 0.1% TFA; linear gradient 0–100% B over 50 min; 1 mL/min; uncalibrated retention time
# From the text: During the routine LC-MS analysis of analogs RP-171 and RP-172, we noticed a distinct difference in retention times and MS^n patterns for these diastereoisomeric peptides. To confirm our observation, we subjected a mixture of these peptides to LC-MS and MS^n experiments. […] It is interesting that the elution order from the biphenyl column was the same as from the C18 column.
# All protected α-amino acids were purchased from Bachem A (Bubendorf, Switzerland). Opioid radioligands, [^3H]DAMGO, [^3H]deltorphin-2, and [^3H]U-69593, and human recombinant opioid receptors were purchased from PerkinElmer (Krakow, Poland). GF/B glass fiber strips were obtained from Whatman (Brentford, UK). Purity of peptides was determined by RP-HPLC and exact mass. Analytical and semi-preparative RP-HPLC was performed using Waters Breeze instrument (Milford, MA, USA) with dual absorbance detector (Waters 2487, MA, USA). […] For LC-MS experiments, Aeris Peptide C18 and Kinetex Biphenyl (Phenomenex, Torrance, CA, USA) were used, in a gradient reversed-phase mode, from 5 to 80% acetonitrile in water (both containing 0.1% HCOOH). ^1H NMR spectra were recorded on a 500 MHz Brucker instrument in DMSO-d6, using residual DMSO as a resonance reference at 2.5 ppm. […]
# [9] = CHO cells co-expressing human recombinant MOR and Gαqi5, Fluo-4 AM fluorescence, FlexStation II, n ≥ 3, read-out: MOR pEC50 (CL95%) (converted)
# [10] = membranes of CHO cells transfected with human opioid receptors, 0.5 nM [3H]DAMGO, 25 °C, 120 min, 50 mM Tris/HCl pH 7.4, Cheng-Prusoff, mean ± SEM, n = 3, read-out: Ki MOR
# [11] = membranes of CHO cells transfected with human opioid receptors, 0.5 nM [3H]deltorphin-2, 25 °C, 120 min, 50 mM Tris/HCl pH 7.4, Cheng-Prusoff, mean ± SEM, n = 3, read-out: Ki DOR
SMILES,EC50 (KOR [1]),EC50 (MOR [2]),DOR pEC50 (CL95%) (DOR [3]),DOR α ± SEM (intrinsic activity) (DOR [3]),stability in the rat brain homogenate [4],Ki (KOR [5]; SEM),Ki (MOR [6]; SEM),Ki (DOR [7]; SEM),"EC50 (KOR [1]; CHO cells co-expressing human recombinant KOR and Gαqi5, Fluo-4 AM fluorescence, FlexStation II, n ≥ 3, read-out: KOR pEC50 (CL95%) (converted))",KOR α ± SEM (intrinsic activity) (KOR [1]; n ≥ 3),"KOR α ± SEM (intrinsic activity) (KOR [1]; n ≥ 3, SEM)",EC50 (MOR [2]; [9]),MOR α ± SEM (intrinsic activity) (MOR [2]; n ≥ 3),"Ki (KOR [5]; membranes of CHO cells transfected with human opioid receptors, 0.5 nM [3H]U-69593, 25 °C, 120 min, 50 mM Tris/HCl pH 7.4, Cheng-Prusoff, mean ± SEM, n = 3, SEM, read-out: Ki KOR)",loss of affinity for KOR as compared with the parent RP-170 (KOR [5]; ratio of Ki values versus RP-170),Ki (MOR [6]; [10]),HPLC tR [8],Ki (DOR [7]; [11]),"KOR pEC50 (CL95%) (KOR [1]; CHO cells co-expressing human recombinant KOR and Gαqi5, Fluo-4 AM fluorescence, FlexStation II, n ≥ 3)","Ki (KOR [5]; membranes of CHO cells transfected with human opioid receptors, 0.5 nM [3H]U-69593, 25 °C, 120 min, 50 mM Tris/HCl pH 7.4, Cheng-Prusoff, mean ± SEM, n = 3, read-out: Ki KOR)"
"NC(=O)[C@@H]1CC(=O)NCCCC[C@@H](NC(=O)[C@@H](N)Cc2ccc(O)cc2)C(=O)N[C@@H](Cc2ccccc2)C(=O)N[C@@H](Cc2ccccc2)C(=O)N1 [RP-170, Tyr-c[D-Lys-Phe-Phe-Asp]NH2] (HELM PEPTIDE1{Y.[dK].F.F.D.[am]}$PEPTIDE1,PEPTIDE1,2:R3-5:R3$$$V2.0)",0.00251 µM,0.00117 µM,inactive,inactive,much more stable than EM-2,0.00152 ± 0.0002 µM,0.00055 ± 2e-05 µM,0.198 ± 0.0045 µM,,,,,,,,,,,,
"NC(=O)[C@@H]1CC(=O)NCCC[C@@H](NC(=O)[C@@H](N)Cc2ccc(O)cc2)CC(=O)N[C@@H](Cc2ccccc2)C(=O)N[C@@H](Cc2ccccc2)C(=O)N1 [RP-171, Tyr-c[(R)-β^3-Lys-Phe-Phe-Asp]NH2]",,,inactive,inactive,,,,,1.02 µM,0.82,0.82 ± 0.05,0.135 µM,0.82 ± 0.02,0.42 ± 0.023 µM,276 fold,0.029 ± 0.00432 µM,14.05 min,> 1 µM,,
"NC(=O)[C@@H]1CC(=O)NCCC[C@H](NC(=O)[C@@H](N)Cc2ccc(O)cc2)CC(=O)N[C@@H](Cc2ccccc2)C(=O)N[C@@H](Cc2ccccc2)C(=O)N1 [RP-172, Tyr-c[(S)-β^3-Lys-Phe-Phe-Asp]NH2]",,,inactive,inactive,,,,,,inactive,,3.55 µM,0.45 ± 0.02,,,0.95 ± 0.045 µM,14.36 min,> 1 µM,inactive,> 1 µM
